From US7582417B2, “Sequential reporter enzyme luminescence (SRL) methods and compositions for practicing the same” (The Board of Trustees of the Leland Stanford Junior …, priority 2006, dated 2009)

Key:
[1] = published value; cited from earlier work
[2] = biological target: T1, somatostatin 2 receptor (SSTR2) (Homo sapiens, UniProt P30874); test: In vivo luminescent imaging of somatostatin 2 receptor activation (SSTR2/Fluc cells in BALB/c nude mice, Lugal); conditions: after octreotide i.p.
T1 construct: expressed in transfected cells; host or cells: C2C12 myoblasts, retrovirally transduced; the in vivo cells also carry Ras and FLuc
T1 sequence (P30874 whole entry): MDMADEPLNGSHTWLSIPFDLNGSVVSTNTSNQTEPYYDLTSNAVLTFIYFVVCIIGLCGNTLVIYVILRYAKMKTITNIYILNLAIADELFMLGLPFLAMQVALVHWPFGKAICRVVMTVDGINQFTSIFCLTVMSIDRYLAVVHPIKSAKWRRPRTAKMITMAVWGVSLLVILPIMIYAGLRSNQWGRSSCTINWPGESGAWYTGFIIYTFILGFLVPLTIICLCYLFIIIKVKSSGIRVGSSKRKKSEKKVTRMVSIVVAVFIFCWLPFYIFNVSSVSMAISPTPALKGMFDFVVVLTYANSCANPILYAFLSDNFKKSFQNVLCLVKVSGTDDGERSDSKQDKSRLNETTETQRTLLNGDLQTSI
T1 sequence (P32121 whole entry partner): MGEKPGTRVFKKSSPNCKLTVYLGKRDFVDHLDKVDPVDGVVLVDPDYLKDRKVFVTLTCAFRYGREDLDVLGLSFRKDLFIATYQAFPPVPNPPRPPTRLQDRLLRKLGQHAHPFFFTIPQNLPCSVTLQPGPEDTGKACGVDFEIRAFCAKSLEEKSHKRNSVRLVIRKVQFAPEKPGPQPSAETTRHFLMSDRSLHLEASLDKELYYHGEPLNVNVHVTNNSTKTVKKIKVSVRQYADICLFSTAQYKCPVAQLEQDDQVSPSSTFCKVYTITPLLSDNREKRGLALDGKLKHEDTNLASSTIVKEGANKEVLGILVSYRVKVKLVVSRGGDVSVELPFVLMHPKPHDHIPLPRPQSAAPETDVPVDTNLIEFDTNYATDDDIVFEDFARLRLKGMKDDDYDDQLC
Text: All protocols were approved by the Administrative Panel on Laboratory Animal Care at Stanford University School of Medicine. BALB/c nude were obtained from the Stanford University in-house colony. C2C12 myoblasts were harvested and suspended in 0.5% BSA in PBS at a final concentration of 10^8 cells/ml for injection. 4×10^6 cells carrying the β2/arrestin β-gal/Ras/FLuc or the SSTR2/arrestin β-gal/Ras/FLuc constructs were subcutaneously into the back of mice (2 injections/mouse), and allowed to grow into small tumors over 7 to 14 days.
Imaging was carried out using a Xenogen-100 device as previously described. Briefly, the system is composed of a light-tight imaging chamber, a digital CCD camera colled by a cryogenic refrigeration unit and a computer system (Living Image™ 2.50 software, Xenogen, Alameda).
We engineered new cell lines carrying the SSTR2/arrestin-β-galactosidase construct by retroviral transduction with the Fluc and ras genes (SSTR2/Fluc).

[3] = biological target: β-gal activity in FLuc/LacZ C2C12 cells (Escherichia coli, UniProt P00722)
Sequence of β-gal activity in FLuc/LacZ C2C12 cells (P00722 whole entry): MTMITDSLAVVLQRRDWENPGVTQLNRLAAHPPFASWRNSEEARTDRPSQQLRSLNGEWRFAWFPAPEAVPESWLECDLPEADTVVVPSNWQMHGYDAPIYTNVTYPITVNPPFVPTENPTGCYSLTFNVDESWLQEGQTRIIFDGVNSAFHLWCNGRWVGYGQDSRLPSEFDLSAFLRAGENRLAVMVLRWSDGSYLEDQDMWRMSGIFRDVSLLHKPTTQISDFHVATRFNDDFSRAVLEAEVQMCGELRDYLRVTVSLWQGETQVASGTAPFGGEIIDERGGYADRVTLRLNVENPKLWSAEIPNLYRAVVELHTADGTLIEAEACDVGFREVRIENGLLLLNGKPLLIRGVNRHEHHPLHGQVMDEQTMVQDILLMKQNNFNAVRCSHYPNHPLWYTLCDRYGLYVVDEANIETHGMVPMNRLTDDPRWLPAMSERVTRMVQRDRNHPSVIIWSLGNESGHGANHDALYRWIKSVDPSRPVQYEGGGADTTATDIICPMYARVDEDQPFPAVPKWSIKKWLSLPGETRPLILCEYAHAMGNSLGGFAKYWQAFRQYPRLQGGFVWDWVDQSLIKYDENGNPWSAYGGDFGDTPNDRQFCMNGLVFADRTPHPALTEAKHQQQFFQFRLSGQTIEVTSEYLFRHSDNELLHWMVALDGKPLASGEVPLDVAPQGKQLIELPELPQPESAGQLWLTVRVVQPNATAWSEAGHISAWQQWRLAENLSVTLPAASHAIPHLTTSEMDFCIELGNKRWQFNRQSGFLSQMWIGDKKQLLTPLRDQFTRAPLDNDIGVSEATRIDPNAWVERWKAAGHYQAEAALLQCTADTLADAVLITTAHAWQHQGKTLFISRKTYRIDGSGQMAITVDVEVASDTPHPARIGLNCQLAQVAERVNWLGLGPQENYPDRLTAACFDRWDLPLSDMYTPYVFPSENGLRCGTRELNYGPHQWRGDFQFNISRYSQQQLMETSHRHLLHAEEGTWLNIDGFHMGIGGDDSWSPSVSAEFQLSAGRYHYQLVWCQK
Method: The parental MFG-IRES-lyt-2 construct was used to generate the lyt-2 expressing myoblasts. Retroviral transduction was performed using the ecotropic ΦNX packaging cell line (generous gift of GP Nolan). This line was transiently transfected with the proviral constructs using Fugene transfection reagent (Boehringer Mannheim). […] Polybrene was added to a final concentration of 8 μg/ml (Sigma) and cells were spun at 2,000 RPM in a Beckman GS-6 centrifuge. Cells transduced with the Luciferase-IRES-lyt-2 construct or the parental MFG-IRES-lyt-2 construct were stained with an anti-lyt-2 antibody conjugated to APC (BD Pharmingen). Cells were sorted by FACS on a Becton Dickinson flow cytometer with MoFlo electronics. […] For the in vitro cell studies, C2C12 cells were seeded in growth medium into a 384-well dish. […] The plate was read on a Tropix TR717 luminometer at room temperature with an integration time of 1 s/well. […] Cell lysates were prepared by aspirating the media and adding 15 ul of lysis buffer (1% Triton-X100, 50 mM Tris-HCl, 10 mM MgCl2, 10 mM DTT, 1 mM ATP, pH 7.5). For wells with intact cells, 15 ul of PBS was substituted for lysis buffer. The substrates were added at equivalent volumes to bring the reaction volume to 30 ul.

[4] = biological target: T2, β-gal activity of implanted FLuc/LacZ cells (Escherichia coli, UniProt P00722)
T2 sequence (P00722 whole entry): as above
Method: Imaging was performed using a Xenogen-100 device as previously described (Cao et al., supra). Briefly, the system is comprised of a light-tight imaging chamber, a cooled digital CCD camera with a cryogenic refrigeration unit and the appropriate computer system (Living Image™ 2.50 software, Xenogen, Alameda). […] C2C12 myoblasts were harvested and suspended in 0.5% BSA in PBS at a final concentration of 10^8 cells/ml for injection. For experiment shown in FIG. 1e, 10^6 cells expressing LacZ and FLuc (FLuc/LacZ cells) were injected into the right tibialis anterior muscle (TA) and 10^6 cells expressing FLuc only (FLuc cells) into the left TA of BALB/c nude mice. […] For experiment shown in FIGS. 2a and 2b, a range of cell numbers between 5×10^4 and 2×10^6 were injected subcutaneously in 10 different locations of the back of BALB/c nude mice.

[5] = biological target: T2, β-gal activity of implanted FLuc/LacZ cells; test: Near-infrared fluorescent imaging of β-gal activity with DDAOG; assay type: in vivo, mouse; parameters: expressed in transfected cells; host or cells: C2C12 mouse myoblasts, retrovirally transduced (FLuc/LacZ cells); conditions: 1×10^6 cells, right vs left leg
Method: The near-infrared imaging probe DDAOG (Molecular Probes) was injected intravenously (0.5 mg of DDAOG in 100 μl of DMSO and PBS (1:1)). NIRF reflectance imaging was performed using an IVIS-200 imager (Xenogen) with a custom filter set (excitation: 615-645; emission: 680-720 nm) (Omega Optical). Images were continuously acquired over 45 min after substrate injection and the images showing optimal signal-to-noise ratios were chosen for comparison.

[6] = biological target: T3, mouse angiotensin receptor 1 (AGTR1) (Mus musculus, UniProt P29754); test: GPCR/arrestin β-gal complementation assay, AGTR1 cell line; assay type: cell-based
T3 construct: expressed in transfected cells; host or cells: C2C12 myoblasts, retrovirally transduced
T3 sequence (P29754 whole entry): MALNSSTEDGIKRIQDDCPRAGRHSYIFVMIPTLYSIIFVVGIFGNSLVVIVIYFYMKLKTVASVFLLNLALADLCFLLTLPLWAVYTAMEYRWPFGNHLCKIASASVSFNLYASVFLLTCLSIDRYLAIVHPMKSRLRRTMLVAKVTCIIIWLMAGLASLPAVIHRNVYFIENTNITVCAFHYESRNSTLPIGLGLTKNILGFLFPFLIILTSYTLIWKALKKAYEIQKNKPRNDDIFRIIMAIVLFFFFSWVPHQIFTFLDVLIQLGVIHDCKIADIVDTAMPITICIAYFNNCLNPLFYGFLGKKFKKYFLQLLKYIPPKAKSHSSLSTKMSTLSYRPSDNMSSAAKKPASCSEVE
T3 sequence (P32121 whole entry partner): as the sequence (P32121 whole entry partner) above
Method: Cells expressing the GPCR-α* and β-arrestin2-ω fusions were seeded at 20,000 cells/well in a 96-well dish overnight. Ligand was added for 1 hour. Media is aspirated and 50 ul of lysis solution (buffer A) and substrate (Gal-screen) in a 25:1 ratio was added to each well. The plates were incubated for 60-90 min at room temperature before reading in a TR717 luminometer with an integration time of 1 second. EC50 values were calculated using non-linear regression with a variable slope sigmoidal dose response algorithm in Prism software (Graphpad).
To test the sensitivity of the GPCR/arrestin assay, each cell line was plated in a 96-well dish and treated for 60 minutes with escalating doses of the indicated agonist (FIG. 9B). β-gal activity was measured using a luminescent substrate (Tropix).

C[C@@H](O)[C@@H]1NC(=O)[C@H](CCCCN)NC(=O)[C@@H](Cc2c[nH]c3ccccc23)NC(=O)[C@H](Cc2ccccc2)NC(=O)[C@@H](NC(=O)[C@H](N)Cc2ccccc2)CSSC[C@@H](C(=O)N[C@H](CO)[C@@H](C)O)NC1=O [octreotide]
serum half life [1]: approx. 6 hours
time for luminescence to return to baseline [2]: 24 h
time for luminescence to return to baseline ([2]; listed as Octreotide): ≤ 24 h

CC(C)NCC(O)c1ccc(O)c(O)c1 (stereo not drawn) [isoproterenol]
serum half life [1]: approx. 2 hours

D-luciferin-O-β-galactopyranoside [Lugal]
Lugal concentration at which strong luminescent signals were generated ([3]; FLuc/LacZ C2C12 cells, 384-well dish, concentrations as low as): 10 µg/mL
Lugal concentration at which a measurable signal was generated without β-gal ([3]; cells expressing FLuc alone, only at the highest concentration): 1000 µg/mL
bioluminescence signal of FLuc/LacZ cells relative to FLuc cells ([4]; 1×10^6 cells per tibialis anterior, right vs left leg, i.p. Lugal): 30-200 fold
signal-to-noise ratio, luminescence imaging, leg muscles ([4]; 1×10^6 cells, right vs left leg): 429 fold
signal-to-noise ratio of Lugal relative to DDAOG, deeper tissues (skeletal muscle) ([4]; higher with Lugal): 150 fold

CC1(C)C2=C(Cl)C(=O)C(Cl)=CC2=Nc2ccc(O[C@@H]3O[C@H](CO)[C@H](O)[C@H](O)[C@H]3O)cc21 [DDAOG, 7-hydroxy-9H-(1,3-dichloro-9,9-dimethylacridin-2-one) β-D-galactoside]
signal-to-noise ratio, fluorescence imaging, leg muscles [5]: 2.8 fold

angiotensin (DRVYIHPF; Angiotensin-2; UniProt P01019 25-32, looked up) [AGTR1 agonist obtained from Sigma]
EC50 [6]: in good agreement with radiolabeled ligand binding assays
increase in β-galactosidase activity ([6]; 60 minutes agonist): greater than 15 fold
